B1: His-DAPLE-CT FA: His-DAPLE-CT with F1675A mutation, Gαi3 binding-deficient mutant (protein)
chain: GTAPPYVGVRPCSASPSSEMVTLEEALEESNRSSPTHDTPSCRDDLLSDYFRKASDPPAIGGQPGPPAKKEGAKMPTNFVAPTVKMAAPTSEGRPLKPGQYVKPNFRLTEAEAPPSVAPRQAQPPQSLSLGRPRQAPVPPASHAPASRSASLSRAFSLASADLLRASGPEACKQESPQKLGAPEALGGRETGSHTLQSPAPPSSHSLARERTPLVGKAGSSCQGPGPRSRPLDTRRFSLAPPKEERLAPLHQSATAPAIATAGAGAAAAGSGSNSQLLHFSPAAAPAARTKPKAPPRSGEVATITPVRAGLSLSEGDGVPGQGCSEGLPAKSPGRSPDLAPHLGRALEDCSRGSVSKSSPASPEPGGDPQTVWYEYGCV
modifications: left off: small tags and cut ends

What was measured:
[1] = system: Ras-transformed NIH3T3 cells; assay: Transformation assay, colony formation in soft agar; format: cell-based; conditions: NIH3T3 co-expressing HA-KRas G12V
Procedure: Neoplastic transformationin Ras-transformed NIH3T3 fibroblasts was analyzed using standard assays of colony formation in soft agar as described previously (Clark et al, 1995). Low passage NIH3T3 cells (˜5000) stably co-transfected with appropriate myc-DAPLE construct (2 μg cDNA) and HA-Ras G12V (1 μg cDNA) were analyzed for their ability to form tumor foci in soft agar plates. Plates were incubated in 5% CO2 at 37° C. for ˜2 weeks in growth media supplemented with 2% FBS. They were finally incubated with 0.1% (wt/vol)dimethylthiazol-2-yl)2 2,5-diphenyl tetrazolium bromide (MTT; Sigma) in PBS for 1 h to visualize colonies. The remaining NIH3T3 cells not used for this assay were lysed and analyzed for myc-DAPLE and Ha-Ras G12V expression by immunoblotting.

DLD1 cells [2] = assay: Anchorage-independent tumor growth assay; format: cell-based, human; conditions: soft agar
Procedure: Anchorage-independent growth of DLD1 cells was analyzed in agar as described previously (Wallert M A, 2007). Briefly, petri plates (60 mm) were pre-layered with 3 ml 1% Bacto agar (Life Technologies) in DMEM containing 10% FBS. Approximately ˜5000 DLD1 cells stably expressing various DAPLE constructs were then plated on top in 3 ml of 0.3% agar-DMEM with 10% FBS. All assays were carried out using three replicate plates at a seeding density of ˜5000 cells/plate. Following overnight incubation in 5% CO2 incubator, 1 ml DMEM supplemented with 2% FBS was added to maintain hydration. After 2 wks of growth, colonies were stained with 0.005% crystal violet/methanol for 1 h, and subsequently photographed by light microscopy. The number of colonies in ˜15-20 randomly-selected fields were counted under 10× magnification. The remaining DLD1 cells were lysed and analyzed by immunoblotting to confirm DAPLE construct expression. Each experiment was analyzed in triplicate.

DLD1 cells [3] = assay: Anchorage-dependent tumor growth assay; format: cell-based, human; conditions: for inhibition of anchorage-dependent tumor growth: DLD1 cells, plastic plates
Procedure: Anchorage-dependent growth was monitored on solid (plastic) surface as described previously (Franken et al, 2006). Briefly, anchorage-dependent growth was monitored on solid (plastic) surface. Approximately ˜1000 DLD1 cells stably expressing various DAPLE constructs were plated in 6-well plates and incubated in 5% CO2 at 37° C. for ˜2 weeks in 0.2% FBS growth media. Colonies were then stained with 0.005% crystal violet for 1 h. The remaining DLD1 cells were lysed and analyzed by immunoblotting to confirm DAPLE construct expression. Each experiment was analyzed in triplicate.

NIH3T3 cells = assay: 3D spheroid matrigel invasion assay; format: cell-based; conditions: in response to Wnt5a
Procedure: NIH3T3 cell invasion assay in 3D culture was performed according to the manufacturer's protocol (Trevigen, Cultrex 3D Spheroid BME Cell Invasion Assay, catalog #3500-096-K). Briefly, non-invasive NIH3T3 cells (˜3000 cells) transfected with empty vector (control) or myc-DAPLEconstructs were incubated first in the Spheroid Formation extracellular matrix (ECM) containing 0.2% FBS for 3 days. Invasion matrix was then added and layered on top with media containing FBS. […] Photographs were analyzed and pseudocolored by Image J to reflect cell density.

[4] = system: β-Catenin/TCF/LEF pathway in DLD1 7TGP cells; assay: β-Catenin reporter assay (7TGP); format: cell-based, human; conditions: stable expression, starved and stimulated with Wnt5a, versus vector control
Procedure: These assays were carried out using the well-established reporter 7×Tcf-eGFP (7TGP) (Fuerer & Nusse, 2010). Stable cells lines expressing this reporter were generated by lentiviral transduction and subsequent selection using standard procedures. Lentiviral infection and selection were performed according to standard procedures. Briefly, 10 cm plates DLD1 cells at 70% confluency were incubated with media containing 8 μg/mL polybrene and 10 μl of lentivirus for 6 h. After 24 hours post infection, selection of puromycin-resistant clones was initiated by adding the antibiotic at 2 μg/ml final concentration. The resultant DLD1-7TGP stable cells were subsequently transfected with various myc-DAPLE constructs and selected for G418 resistance as described earlier in methods. The DLD1-7TGP cells stably expressing myc-DAPLE were incubated overnight at 0.2% FBS, analyzed by fluorescence microscopy, and photographed prior to lysis. Whole cell lysates samples were then boiled in Laemmli's sample buffer and GFP protein expression was monitored by immunoblotting.

GST-FZD7R-CT = molecular target: T1, GST-FZD7R-CT (Homo sapiens, UniProt O75084); assay: GST-FZD7-CT pulldown of His-Gαi3; format: binding; conditions: His-Gαi3 preloaded with GDP, in the presence of DAPLE-CT
T1 construct: the GST-tagged cytoplasmic tail of FZD7R; made in house; host or cells: bacteria (E. coli BL21 (DE3)); plasmid a gift of R. Yao
Procedure: GST-FZD7-CT and GST-PBD constructs were immobilized on glutathione-Sepharose beads directly from bacterial lysates by overnight incubation at 4° C. with constant tumbling. Next morning, GST-FZD7-CT immobilized on glutathione beads were washed and subsequently incubated with His-tagged DAPLE-CT or Gαi3 proteins at 4° C. with constant tumbling. Washes and immunoblotting were performed as previously.

His-Gαi3 [5] = molecular target: T2, His-Gαi3 (Rattus norvegicus, UniProt P08753); assay: Steady-state GTPase assay; format: biochemical; conditions: parallel reactions, WT replaced by F1675A
T2 construct: His; made in house; host or cells: E. coli BL21 (DE3)
Procedure: Under the experimental conditions of steady-state GTPase assays, GTP hydrolysis occurs as a two-step reaction, i.e., 1) GDP is released from the G protein and exchanged for GTP, and 2) the GTP loaded is hydrolyzed. Nucleotide exchange is the rate limiting step in this process because it is ˜50-100 times slower than GTP hydrolysis by Gαi subunits (Mukhopadhyay & Ross, 2002). Thus, the steady-state GTPase activity reflects the rate of nucleotide exchange, and was performed as described previously (Garcia-Marcos et al, 2010; Garcia-Marcos et al, 2012; Garcia-Marcos et al, 2011b). Briefly, His-Gαi3 (100 nM) was preincubated with different concentrations of His-DAPLE-CT (aa 1650-2028) for 15 min at 30° C. in assay buffer [20 mM Na-HEPES, pH 8, 100 mM NaCl, 1 mM EDTA, 2 mM MgCl2, 1 mM DTT, 0.05% (w:v) C12E10]. GTPase reactions were initiated at 30° C. by adding an equal volume of assay buffer containing 1 μM [γ-^32P]GTP (˜50 c.p.m/fmol). […] Samples were then centrifuged for 10 min at 10,000×g, and 500 μl of the resultant supernatant were scintillation counted to quantify released [^32P]Pi. For the time course experiments, data was expressed as raw c.p.m. For the dose-dependence curve experiments, the background [^32P]Pi detected at 15 min in the absence of G protein was subtracted from each reaction and data expressed as percentage of the Pi produced by His-Gαi3 in the absence of His-DAPLE-CT.

His-Gαi3 [6] = molecular target: T2, His-Gαi3; assay: GTPγS binding assay; format: biochemical; conditions: 0-2 μM, 15 min
Procedure: GTPγS binding was measured using a filter binding method as described previously (Garcia-Marcos et al, 2010; Garcia-Marcos et al, 2011b). His-Gαi3 (100 nM) was preincubated with different concentrations of His-DAPLE-CT (aa 1650-2028) for 15 min at 30° C. in assay buffer [20 mM Na-HEPES, pH 8, 100 mM NaCl, 1 mM EDTA, 25 mM MgCl2, 1 mM DTT, 0.05% (w:v) C12E10]. Reactions were initiated at 30° C. by adding an equal volume of assay buffer containing 1 μM [^35S] GTPγS (˜50 c.p.m/fmol). Duplicate aliquots (25 μl) were removed at different time points, and binding of radioactive nucleotide was stopped by addition of 3 ml, ice-cold wash buffer (20 mM Tris-HCl, pH 8.0, 100 mM NaCl, 25 mM MgCl2). The quenched reactions were rapidly passed through BA-85 nitrocellulose filters (GE Healthcare) and washed with 4 ml wash buffer. Filters were dried and subjected to liquid scintillation counting. To determine the specific nucleotide binding, the background [^35S]GTPγS detected in the absence of G protein was subtracted from each reaction and data expressed as percentage of the [^35S] GTPγS bound by His-Gαi3 in the absence of His-DAPLE-CT.

[7] = molecular target: T3, GST-Gαi3·Gβγ preformed complexes (Rattus norvegicus, UniProt P08753); assay: Gβγ displacement assay; format: binding; conditions: 0.05-1 μM WT or 1 μM F1675A
T3 construct: made in house; host or cells: E. coli BL21 (DE3) for GST-Gαi3; Gβγ endogenous from HEK293T lysate
Procedure: This assay was performed as described previously (Garcia-Marcos et al, 2009). Briefly, GST alone or GST-Gαi3 proteins immobilized on glutathione-agarose beads were incubated overnight at 4° C. with HEK293T cell lysates in binding buffer [50 mM Tris-HCl, pH 7.4, 100 mM NaCl, 0.4% (v:v) NP-40, 10 mM MgCl2, 5 mM EDTA, 2 mM DTT, protease inhibitor cocktail supplemented with 30 μM GDP]. Unbound Gβγ-subunits were washed twice with the same buffer and proteins bound to the glutathione-agarose beads divided into equal aliquots containing ˜5 μg (˜0.4 μM) GST-fusion proteins. Aliquots were incubated with increasing concentrations (0.05-1 μM) of purified His-DAPLE-CT (1650-2028) wild-type or 1 μM His-DAPLE-CT F1675A in binding buffer supplemented with GDP (˜200 μl) for 5 h at 4° C. Glutathione-agarose beads were washed and bound proteins eluted by boiling in Laemmli sample buffer and separated by SDS-PAGE.

| Molecule | reduction of number of colonies in soft-agar [1] | inhibition of anchorage-independent tumor growth (DLD1 cells [2]) | inhibition of anchorage-dependent tumor growth (DLD1 cells [3]) | invasion of matrigel by spheroids (NIH3T3 cells) | eGFP signal (Wnt transcriptional activity) [4] | adherent colonies per well (tumor growth) (DLD1 cells [3]; DLD1 cells stably expressing constructs, 2-3 weeks) | increase of Gαi3 binding to GST-FZD7R-CT (GST-FZD7R-CT) | acceleration of steady-state GTPase activity diminished versus His-DAPLE-CT WT (His-Gαi3 [5]) [%] | initial rate of nucleotide (GTPγS) binding by His-Gαi3 (His-Gαi3 [6]) | displacement of Gβγ from pre-assembled complex with GST-Gαi3 [7] |
| --- | --- | --- | --- | --- | --- | --- | --- | --- | --- | --- |
| DAPLE-FA: full length myc-DAPLE with F1675A mutation in the GBA motif, expressed in cells | failed to inhibit | enhanced oncogenicity | failed to inhibit | – | – | – | – | – | – | – |
| DAPLE-WT: myc-tagged full length human DAPLE (SEQ ID NO: 2) expressed in cells from pcDNA 3.1 | ~65% | ~50% | ~90% | increase of invasion tracks | showed inhibition of eGFP | can inhibit tumor growth | – | – | – | – |
| B1 | – | – | – | – | – | – | not | > 90 | not significantly affected | not |

Reference: patent US10358467B2, “Therapeutic targets for cancer progression” (The Regents of the University of California, priority 2015, dated 2019)
